Results taken from article PMC10247784, “Physiological activation of human and mouse bitter taste receptors by bile acids” (Communications Biology, 2023).
Values joined by “and” are separate entries in the source; they are usually repeats but may differ in a detail not shown here. Equal values may be shown once.

Biological target: T1, human TAS2R4 (Homo sapiens, UniProt Q9NYW5)
T1 construct: expressed in transfected cells; host or cells: HEK293T-Gα16gust44
T1 sequence (Q9NYW5 1-299): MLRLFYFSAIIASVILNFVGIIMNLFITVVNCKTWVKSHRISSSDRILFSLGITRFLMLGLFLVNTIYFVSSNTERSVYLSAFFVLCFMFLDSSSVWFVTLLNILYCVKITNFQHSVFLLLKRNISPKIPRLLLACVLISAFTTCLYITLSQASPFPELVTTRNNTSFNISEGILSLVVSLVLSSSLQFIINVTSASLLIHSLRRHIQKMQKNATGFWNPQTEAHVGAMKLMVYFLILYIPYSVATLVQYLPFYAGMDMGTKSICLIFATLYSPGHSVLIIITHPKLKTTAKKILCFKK
Experiment: Calcium imaging assay (FLIPR), HEK293T-Gα16gust44 cells transfected with human TAS2R4
Format: cell-based
Experimental: This set of bile acids was chosen because of their commercial availability in high purities, their diversity within the class of bile acids and their previous detection and quantitation in human blood. Stock solutions were prepared in DMSO.
As basal growth medium for the HEK293T-Gα16gust44 cell line[17],[59] served Dulbecco’s modified eagle medium (DMEM) (Thermo Fisher Scientific, Darmstadt, Germany) supplemented with 10 % fetal bovine serum (Sigma-Aldrich, Steinheim, Germany), 2 mM L-glutamine (Sigma-Aldrich, Steinheim, Germany), 100 units/ml penicillin (Sigma Aldrich, Steinheim, Germany) and 100 µg/ml streptomycin (Sigma Aldrich, Steinheim, Germany). Growth conditions were 37 °C, 5 % CO2 and saturated air-humidity[60].
HEK293T-Gα16gust44 cells were seeded on poly-D-lysine (10 µg/ml) coated 96-well plates to reach a confluence of 40-60 % the next day. For transient transfection 150 ng of plasmid DNA containing the receptor of interest and 0.3 µl lipofectamine 2000 (Thermo Fisher Scientific, Darmstadt, Germany) per well were used and transfection took place according to the manual of lipofectamine 2000. […] The empty vector DNA (mock) was transfected as negative control[14],[41].
Cells were loaded using the calcium-sensitive fluorescent dye Fluo-4-AM (Abcam, Cambridge, Great Britain) in the presence of 2.5 mM probenecid (Sigma-Aldrich, Steinheim, Germany) the day after transfection[13],[41]. 1 h after loading, cells were washed with C1 buffer using a BioTek Cell Washer, incubated in the dark for half an hour and washed again. For automated agonist application and measurement of fluorescence changes, a FLIPR^TETRA device (Molecular Devices, San José, United States) was used. Viability of cells was tested by application of 100 nM Somatostatin 14 (Bachem, Bubendorf, Switzerland)[42].
Measured data were negative control corrected by subtracting the signal of the mock-transfected cells and exported to Microsoft Excel using the FLIPR software ScreenWorks 4.2. In Microsoft Excel software, standardization of maximum fluorescence intensities to the basal fluorescence and normalization to the buffer-only control was done to calculate the relative fluorescence changes (ΔF/F).
Initial screening experiments performed in duplicate wells were confirmed by at least one replication and representative traces were selected for display. All dose-response relationships were determined by three independent experiments (biological replicates) performed in duplicates (technical replicates). Threshold concentrations, defined as lowest substance concentrations leading to statistically significant elevated fluorescence changes in receptor-transfected cells compared with empty vector-transfected cells, were determined using SigmaPlot with Student’s t-test to evaluate statistical significance (p < 0.01).

Compound: C[C@H](CCC(=O)O)[C@H]1CC[C@H]2[C@@H]3[C@H](O)C[C@@H]4C[C@H](O)CC[C@]4(C)[C@H]3C[C@H](O)[C@]12C [Cholic Acid, cholic acid]
- Efficacy = maximal amplitude (ΔF/F) (TAS2R4, bile acids, mean): 0.1231
- Efficacy (maximal amplitude ΔF/F), individual data points (TAS2R4, bile acids, single replicates, listed as CA): 0.1201 and 0.127 and 0.1223
- RLU, fluorescence trace (Time (s) 0): 0 RLU
- RLU, fluorescence trace (Time (s) 2): 19.1006 RLU
- RLU, fluorescence trace (Time (s) 4): 0.3953 RLU
- RLU, fluorescence trace (Time (s) 6): 2.918 RLU
- RLU, fluorescence trace (Time (s) 8): 21.2897 RLU
- RLU, fluorescence trace (Time (s) 12): 0.674 RLU
- RLU, fluorescence trace (Time (s) 14): -1.277 RLU
- RLU, fluorescence trace (Time (s) 16): 19.6047 RLU
- RLU, fluorescence trace (Time (s) 18): 0.9534 RLU
- RLU, fluorescence trace (Time (s) 18.766 (TCA, TLCA: 18.782)): -8.812 RLU
- RLU, fluorescence trace (Time (s) 20.781 (TCA, TLCA: 20.782)): -52.2052 RLU
- RLU, fluorescence trace (Time (s) 22.781 (TCA, TLCA: 22.782)): 12.9621 RLU
- RLU, fluorescence trace (Time (s) 24.781 (TCA, TLCA: 24.782)): 16.2873 RLU
- RLU, fluorescence trace (Time (s) 26.781 (TCA, TLCA: 26.782)): 53.8077 RLU
- RLU, fluorescence trace (Time (s) 28.781 (TCA, TLCA: 28.782)): 116.69 RLU
- RLU, fluorescence trace (Time (s) 30.781 (TCA, TLCA: 30.782)): 202.767 RLU
- RLU, fluorescence trace (Time (s) 32.781 (TCA, TLCA: 32.782)): 286.976 RLU
- RLU, fluorescence trace (Time (s) 34.781 (TCA, TLCA: 34.782)): 331.157 RLU
- RLU, fluorescence trace (Time (s) 36.781 (TCA, TLCA: 36.782)): 398.002 RLU
- RLU, fluorescence trace (Time (s) 38.781 (TCA, TLCA: 38.782)): 447.116 RLU
- RLU, fluorescence trace (Time (s) 40.781 (TCA, TLCA: 40.782)): 484.385 RLU
- RLU, fluorescence trace (Time (s) 42.781 (TCA, TLCA: 42.782)): 513.813 RLU
- RLU, fluorescence trace (Time (s) 44.781 (TCA, TLCA: 44.782)): 571.4 RLU
- RLU, fluorescence trace (Time (s) 46.781 (TCA, TLCA: 46.782)): 576.681 RLU
- RLU, fluorescence trace (Time (s) 48.781 (TCA, TLCA: 48.782)): 621.92 RLU
- RLU, fluorescence trace (Time (s) 50.781 (TCA, TLCA: 50.782)): 628.153 RLU
- RLU, fluorescence trace (Time (s) 52.781 (TCA, TLCA: 52.782)): 608.216 RLU
- RLU, fluorescence trace (Time (s) 54.781 (TCA, TLCA: 54.782)): 673.422 RLU
- RLU, fluorescence trace (Time (s) 56.781 (TCA, TLCA: 56.782)): 649.648 RLU
- RLU, fluorescence trace (Time (s) 58.781 (TCA, TLCA: 58.782)): 665.81 RLU
- RLU, fluorescence trace (Time (s) 60.781 (TCA, TLCA: 60.782)): 679.484 RLU
- RLU, fluorescence trace (Time (s) 62.781 (TCA, TLCA: 62.782)): 679.42 RLU
- RLU, fluorescence trace (Time (s) 64.781 (TCA, TLCA: 64.782)): 662.359 RLU
- RLU, fluorescence trace (Time (s) 66.781 (TCA, TLCA: 66.782)): 681.18 RLU
- RLU, fluorescence trace (Time (s) 68.781 (TCA, TLCA: 68.782)): 661.786 RLU
- RLU, fluorescence trace (Time (s) 70.781 (TCA, TLCA: 70.782)): 663.821 RLU
- RLU, fluorescence trace (Time (s) 72.781 (TCA, TLCA: 72.782)): 677.656 RLU
- RLU, fluorescence trace (Time (s) 74.781 (TCA, TLCA: 74.782)): 687.298 RLU
- RLU, fluorescence trace (Time (s) 76.781 (TCA, TLCA: 76.782)): 685.082 RLU
- RLU, fluorescence trace (Time (s) 78.781 (TCA, TLCA: 78.782)): 661.065 RLU
- RLU, fluorescence trace (Time (s) 80.781 (TCA, TLCA: 80.782)): 659.476 RLU
- RLU, fluorescence trace (Time (s) 82.781 (TCA, TLCA: 82.782)): 652.14 RLU
- RLU, fluorescence trace (Time (s) 84.781 (TCA, TLCA: 84.782)): 621.974 RLU
- RLU, fluorescence trace (Time (s) 86.781 (TCA, TLCA: 86.782)): 644.971 RLU
- RLU, fluorescence trace (Time (s) 88.781 (TCA, TLCA: 88.782)): 652.467 RLU
- RLU, fluorescence trace (Time (s) 90.781 (TCA, TLCA: 90.782)): 634.908 RLU
- RLU, fluorescence trace (Time (s) 92.781 (TCA, TLCA: 92.782)): 616.215 RLU
- RLU, fluorescence trace (Time (s) 94.781 (TCA, TLCA: 94.782)): 623.143 RLU
- RLU, fluorescence trace (Time (s) 96.781 (TCA, TLCA: 96.782)): 577.048 RLU
- RLU, fluorescence trace (Time (s) 98.781 (TCA, TLCA: 98.782)): 590.83 RLU
- RLU, fluorescence trace (Time (s) 100.781 (TCA, TLCA: 100.782)): 594.46 RLU
- RLU, fluorescence trace (Time (s) 102.781 (TCA, TLCA: 102.782)): 570.853 RLU
- RLU, fluorescence trace (Time (s) 104.781 (TCA, TLCA: 104.782)): 535.832 RLU
- RLU, fluorescence trace (Time (s) 106.781 (TCA, TLCA: 106.782)): 576.036 RLU
- RLU, fluorescence trace (Time (s) 108.781 (TCA, TLCA: 108.782)): 552.984 RLU
- RLU, fluorescence trace (Time (s) 110.781 (TCA, TLCA: 110.782)): 539.61 RLU
- RLU, fluorescence trace (Time (s) 112.781 (TCA, TLCA: 112.782)): 529.912 RLU
- RLU, fluorescence trace (Time (s) 114.781 (TCA, TLCA: 114.782)): 525.649 RLU
- RLU, fluorescence trace (Time (s) 116.781 (TCA, TLCA: 116.782)): 514.781 RLU
- RLU, fluorescence trace (Time (s) 118.781 (TCA, TLCA: 118.782)): 515.049 RLU
- RLU, fluorescence trace (Time (s) 120.781 (TCA, TLCA: 120.782)): 488.175 RLU
- RLU, fluorescence trace (Time (s) 122.781 (TCA, TLCA: 122.782)): 489.541 RLU
- RLU, fluorescence trace (Time (s) 124.781 (TCA, TLCA: 124.782)): 470.085 RLU
- RLU, fluorescence trace (Time (s) 126.781 (TCA, TLCA: 126.782)): 464.513 RLU
- RLU, fluorescence trace (Time (s) 128.781 (TCA, TLCA: 128.782)): 464.071 RLU
- RLU, fluorescence trace (Time (s) 130.781 (TCA, TLCA: 130.782)): 466.285 RLU
- RLU, fluorescence trace (Time (s) 132.781 (TCA, TLCA: 132.782)): 460.578 RLU
- RLU, fluorescence trace (Time (s) 134.781 (TCA, TLCA: 134.782)): 427.673 RLU
- RLU, fluorescence trace (Time (s) 136.781 (TCA, TLCA: 136.782)): 445.361 RLU
- RLU, fluorescence trace (Time (s) 137.547): 436.003 RLU
- RLU, fluorescence trace (Time (s) 143.547): 408.618 RLU
- RLU, fluorescence trace (Time (s) 149.547): 386.336 RLU
- RLU, fluorescence trace (Time (s) 155.547): 351.767 RLU
- RLU, fluorescence trace (Time (s) 161.547): 346.602 RLU
- RLU, fluorescence trace (Time (s) 167.547): 335.172 RLU
- RLU, fluorescence trace (Time (s) 173.547): 264.873 RLU
- RLU, fluorescence trace (Time (s) 179.547): 265.3 RLU
- RLU, fluorescence trace (Time (s) 185.547): 242.782 RLU
- RLU, fluorescence trace (Time (s) 191.547): 246.932 RLU
- RLU, fluorescence trace (Time (s) 197.547): 258.506 RLU
- RLU, fluorescence trace (Time (s) 203.547): 232.756 RLU
- RLU, fluorescence trace (Time (s) 209.547): 219.78 RLU
- RLU, fluorescence trace (Time (s) 215.547): 251.011 RLU
- RLU, fluorescence trace (Time (s) 221.547): 260.591 RLU
- RLU, fluorescence trace (Time (s) 227.547): 271.039 RLU
- RLU, fluorescence trace (Time (s) 233.547): 291.66 RLU
- RLU, fluorescence trace (Time (s) 239.547): 269.732 RLU
- RLU, fluorescence trace (Time (s) 245.547): 266.514 RLU
- RLU, fluorescence trace (Time (s) 293.547): 239.384 RLU
- RLU, fluorescence trace (Time (s) 299.547): 250.874 RLU
- RLU, fluorescence trace (Time (s) 305.547): 250.223 RLU
- RLU, fluorescence trace (Time (s) 311.547): 248.529 RLU
- RLU, fluorescence trace (Time (s) 317.547): 268.105 RLU
- RLU, fluorescence trace (Time (s) 323.547): 278.662 RLU
- RLU, fluorescence trace (Time (s) 329.547): 259.586 RLU
- RLU, fluorescence trace (Time (s) 335.547): 285.984 RLU
- RLU, fluorescence trace (Time (s) 341.547): 283.853 RLU
- RLU, fluorescence trace (Time (s) 347.547): 275.523 RLU
- RLU, fluorescence trace (Time (s) 353.547): 309.056 RLU
- RLU, fluorescence trace (Time (s) 359.547): 277.364 RLU
- Activation threshold concentration TAS2R4 (lowest concentration with significantly increased fluorescence vs empty vector (p < 0.01)): 30 µM
